# Reference: patent publication US20170275270A1, “BENZYL SUBSTITUTED INDAZOLES” (Bayer Pharma Aktiengesellschaft, priority 2014, published 2017)
# Counter-ions that a name gives are not always drawn. Like-named read-outs stand apart in the source and are kept apart here.
# How the values were obtained:
# [1] = test system: HeLa human cervical tumor cells; assay: Proliferation assay (HeLa+Paclitaxel); conditions: read-out: Biological Assay 3: HeLa + Paclitaxel IC50, 3 nM paclitaxel, crystal violet;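 further: compounds at 0.001-10 µM added 4 h after paclitaxel, 92 h exposure, absorbance normalized to zero-point plate (0%) and untreated cells (100%), IC50 from 4-parameter fit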
# HeLa = assay: Proliferation assay (HeLa cell line);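 further: crystal violet staining of cell number, scaled between a plate stained before dosing (0%) and cells left untreated (100%), compounds tested at 0.001-10 µM, IC50 via 4-parameter fit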
# [2] = molecular target: T1, catalytic domain of human Bub1 (amino acids 704-1085) (Homo sapiens, UniProt O43683); assay: Bub1 kinase assay (TR-FRET); assay type: biochemical
# T1 construct: catalytic domain of human Bub1 (amino acids 704-1085); His6 (N); made in house; host or cells: Hi5 insect cells
# T1 sequence (O43683 704-1085): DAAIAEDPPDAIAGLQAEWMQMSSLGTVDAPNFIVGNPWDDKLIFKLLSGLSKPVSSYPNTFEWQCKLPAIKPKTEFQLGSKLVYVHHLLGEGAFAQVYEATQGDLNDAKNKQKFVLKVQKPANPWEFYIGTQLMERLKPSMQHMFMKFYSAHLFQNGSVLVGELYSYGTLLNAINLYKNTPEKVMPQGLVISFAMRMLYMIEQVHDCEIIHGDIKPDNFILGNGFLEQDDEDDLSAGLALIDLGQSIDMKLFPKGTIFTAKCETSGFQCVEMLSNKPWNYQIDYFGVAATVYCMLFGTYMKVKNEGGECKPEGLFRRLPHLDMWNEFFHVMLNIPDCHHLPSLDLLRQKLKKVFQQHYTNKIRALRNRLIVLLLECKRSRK
# How it was run: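 Compounds from 2 mM DMSO stocks, serially diluted 1:3.4, incubated with enzyme at 22° C for 60 min. Stopped with EDTA, then 1 h with streptavidin-XL665, anti-phosphoserine antibody and Eu-labelled anti-mouse IgG. Phosphorylated biotin-peptide read by TR-FRET; IC50 by 4-parameter logistic fit.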
# Bub1 = Bub1 (Homo sapiens, UniProt O43683); assay: Formation-Assay: phosphorylation status of histone 2A by inhibition of kinase activity of Bub1; assay type: cell-based; conditions: 16 h
# Chain of Bub1 (O43683 whole entry): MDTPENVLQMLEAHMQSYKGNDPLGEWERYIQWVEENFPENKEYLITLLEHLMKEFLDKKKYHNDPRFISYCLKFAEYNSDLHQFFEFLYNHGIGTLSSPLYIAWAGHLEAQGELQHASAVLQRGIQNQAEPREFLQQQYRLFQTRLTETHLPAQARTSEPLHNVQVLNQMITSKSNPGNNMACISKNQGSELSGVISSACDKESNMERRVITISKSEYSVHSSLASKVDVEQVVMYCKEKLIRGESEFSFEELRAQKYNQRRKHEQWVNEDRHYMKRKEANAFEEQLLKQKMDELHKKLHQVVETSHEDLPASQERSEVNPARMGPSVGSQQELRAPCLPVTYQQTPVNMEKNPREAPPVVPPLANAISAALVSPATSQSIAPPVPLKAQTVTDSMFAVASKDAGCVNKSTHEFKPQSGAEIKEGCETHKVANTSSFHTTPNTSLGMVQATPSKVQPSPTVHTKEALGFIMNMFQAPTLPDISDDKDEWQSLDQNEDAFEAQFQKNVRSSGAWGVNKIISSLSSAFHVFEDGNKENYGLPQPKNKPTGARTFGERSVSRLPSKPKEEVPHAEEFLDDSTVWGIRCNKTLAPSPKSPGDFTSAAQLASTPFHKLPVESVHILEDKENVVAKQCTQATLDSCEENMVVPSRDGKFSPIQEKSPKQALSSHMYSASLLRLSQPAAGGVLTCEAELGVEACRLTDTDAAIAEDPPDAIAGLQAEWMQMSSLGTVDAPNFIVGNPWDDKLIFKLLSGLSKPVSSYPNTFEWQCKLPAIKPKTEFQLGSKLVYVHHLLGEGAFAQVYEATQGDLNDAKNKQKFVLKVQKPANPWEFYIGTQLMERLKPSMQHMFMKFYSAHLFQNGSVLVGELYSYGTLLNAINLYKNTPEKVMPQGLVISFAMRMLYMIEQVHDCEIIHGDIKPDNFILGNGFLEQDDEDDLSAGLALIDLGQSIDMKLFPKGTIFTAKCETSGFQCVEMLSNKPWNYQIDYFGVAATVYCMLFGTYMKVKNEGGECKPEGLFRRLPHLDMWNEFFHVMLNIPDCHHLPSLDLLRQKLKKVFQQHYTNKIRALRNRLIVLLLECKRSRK
# Description: Biological Assay 4.1: Formation-Assay
# Cell-Based Mechanistic Assay: Changes of Phosphorylation Status of Histone 2A by Inhibition of Kinase Activity of Bub1
# This assay determines the suppression of histone 2A phosphorylation by a Bub1 kinase inhibitor during co-treatment with Nocodazole. 25000 cells (cells were ordered from ATCC) were seeded in 96 well plate for 5 h at 37° C. Cells were treated with Nocodazole (1 μg/ml) and varying concentrations (between 3 nM and 10 μM) of test compounds for 16 h. Cells were fixed (20 min, Fixing solution R&D), washed three times with PBS and blocked with Odyssey blocking buffer before incubating with the primary antibody against phosphorylated H2A (5 μg/ml ABIN482721) overnight at 2-8° C. After washing, secondary IRDye-labeled antibody mix with cell stains was added for 1 h and washed again with PBS. Plates were scanned with LiCor Odyssey Infrared Imager CLx at 800 nm for P-H2A and at 700 nm for cell stains Draq5/Sapphire. The quotient of 800 nm and 700 nm for Nocodazole only treated cells was set as 100% and the quotient of 800 nm and 700 nm of untreated cells was set as 0%.
# Histone H2A is an immediate intracellular substrate of Bub1 kinase. Determination of the phosphorylation status of Histone H2A provides a direct measure of the intracellular activity of Bub1 kinase.
# [3] = 10 μM ATP, read-out: Biological Assay 1: Bub1 kinase assay median IC50
# [4] = Homo sapiens, 96 h, read-out: Biological Assay 2: Proliferation assay (HeLa cell line) median IC50
# [5] = Biological Assay 1: Bub1 kinase assay median IC50, 10 μM ATP
# [6] = Biological Assay 4.1: H2A Formation IC50, co-treatment with Nocodazole 1 μg/ml
Compound,IC50 [1] [nM],"IC50 (HeLa; read-out: Biological Assay 2: Proliferation assay (HeLa cell line) median IC50, 4 days, crystal violet) [nM]","IC50 [2, 3] [nM]","IC50 (Bub1; co-treatment with Nocodazole 1 μg/ml, read-out: Biological Assay 4.1: H2A Formation IC50) [nM]",IC50 (HeLa; [4]) [nM],"IC50 [2, 5] [nM]",IC50 (Bub1; [6]) [nM]
"2-{3,5-difluoro-4-[(3-{5-[2-(methylsulfonyl)ethyl]-4-(eparate-4-ylamino)pyrimidin-2-yl}-1H-indazol-1-yl)methyl]phenoxy}ethanol [Example 2-4-1]",3600,> 10000,12,96,,,
"CCOc1cc(F)c(Cn2nc(-c3ncc(CC[S@@+](C)[O-])c(Nc4ccncc4)n3)c3ccccc32)c(F)c1 [Example 2-1-1, 2-[1-(4-ethoxy-2,6-difluorobenzyl)-1H-indazol-3-yl]-5-{2-[(R)-methylsulfinyl]ethyl}-N-(pyridin-4-yl)pyrimidin-4-amine]",150,,,,3600,5,1400
"CCOc1cc(F)c(Cn2nc(-c3ncc(CCCCN4CCOCC4)c(Nc4ccncc4)n3)c3ccccc32)c(F)c1 [Example 2-2-12, 2-[1-(4-ethoxy-2,6-difluorobenzyl)-1H-indazol-3-yl]-5-[4-(morpholin-4-yl)butyl]-N-(pyridin-4-yl)pyrimidin-4-amine]",170,,,,2300,12,800
"CCOc1cc(F)c(Cn2nc(-c3ncc(CCCN4CCOCC4)c(Nc4ccncc4C(F)(F)F)n3)c3ccccc32)c(F)c1 [Example 2-2-14, 2-[1-(4-ethoxy-2,6-difluorobenzyl)-1H-indazol-3-yl]-5-[3-(morpholin-4-yl)propyl]-N-[3-(trifluoromethyl)pyridin-4-yl]pyrimidin-4-amine]",140,,,,7800,130,3900
"CCOc1cc(F)c(Cn2nc(-c3ncc(CCN4CCCC(F)(F)C4)c(Nc4ccncc4)n3)c3ccccc32)c(F)c1 [Example 2-2-16, 5-[2-(3,3-difluoropiperidin-1-yl)ethyl]-2-[1-(4-ethoxy-2,6-difluorobenzyl)-1H-indazol-3-yl]-N-(pyridin-4-yl)pyrimidin-4-amine]",230,,,,6900,15,1900
"CCOc1cc(F)c(Cn2nc(-c3ncc(CCCCN4CCCC(F)(F)C4)c(Nc4ccncc4)n3)c3ccccc32)c(F)c1 [Example 2-2-17, 5-[4-(3,3-difluoropiperidin-1-yl)butyl]-2-[1-(4-ethoxy-2,6-difluorobenzyl)-1H-indazol-3-yl]-N-(pyridin-4-yl)pyrimidin-4-amine]",340,,,,9300,95,1200
"CCOc1cc(F)c(Cn2nc(-c3ncc(CCCN4CCC(F)(F)CC4)c(Nc4ccncc4)n3)c3ccccc32)c(F)c1 [Example 2-2-18, 5-[3-(4,4-difluoropiperidin-1-yl)propyl]-2-[1-(4-ethoxy-2,6-difluorobenzyl)-1H-indazol-3-yl]-N-(pyridin-4-yl)pyrimidin-4-amine]",400,,,,> 10000,130,8700
"CCOc1cc(F)c(Cn2nc(-c3ncc(CN4CC(F)(F)C4)c(Nc4ccncc4)n3)c3ccccc32)c(F)c1 [Example 2-2-19, 5-[(3,3-difluoroazetidin-1-yl)methyl]-2-[1-(4-ethoxy-2,6-difluorobenzyl)-1H-indazol-3-yl]-N-(pyridin-4-yl)pyrimidin-4-amine]",630,,,,5400,28,1800
"CCOc1cc(F)c(Cn2nc(-c3nc(CS(C)(=O)=O)cc(Nc4ccncc4)n3)c3ccccc32)c(F)c1 [Example 2-3-4, 2-[1-(4-ethoxy-2,6-difluorobenzyl)-1H-indazol-3-yl]-6-[(methylsulfonyl)methyl]-N-(pyridin-4-yl)pyrimidin-4-amine]",1000,,,,2100,5.9,0.52
"CS(=O)(=O)CCCc1cnc(-c2nn(Cc3c(F)cc(OCCO)cc3F)c3ccccc23)nc1Nc1ccncc1 [Example 2-4-2, 2-{3,5-difluoro-4-[(3-{5-[3-(methylsulfonyl)propyl]-4-(pyridin-4-ylamino)pyrimidin-2-yl}-1H-indazol-1-yl)methyl]phenoxy}ethanol]",3900,,,,> 10000,15,70
"C[S@@+]([O-])CCCc1cnc(-c2nn(Cc3c(F)cc(OCCO)cc3F)c3ccccc23)nc1Nc1ccncc1 [Example 2-4-3, 2-[3,5-difluoro-4-({3-[5-{3-[(R)-methylsulfinyl]propyl}-4-(pyridin-4-ylamino)pyrimidin-2-yl]-1H-indazol-1-yl}methyl)phenoxy]ethanol]",> 10000,,,,> 10000,940,1000
"COc1cnccc1Nc1nc(-c2nn(Cc3c(F)cc(OCCO)cc3F)c3ccccc23)nc2c1CCC2 [Example 2-4-5, 2-{3,5-difluoro-4-[(3-{4-[(3-methoxypyridin-4-yl)amino]-6,7-dihydro-5H-cyclopenta[d]pyrimidin-2-yl}-1H-indazol-1-yl)methyl]phenoxy}ethanol]",180,,28,,2600,,3900
"OCCOc1cc(F)c(Cn2nc(-c3nc4c(c(Nc5ccnnc5)n3)CCC4)c3ccccc32)c(F)c1 [Example 2-4-10, 2-[3,5-difluoro-4-({3-[4-(pyridazin-4-ylamino)-6,7-dihydro-5H-cyclopenta[d]pyrimidin-2-yl]-1H-indazol-1-yl}methyl)phenoxy]ethanol, salt with hydrochloric acid]",1200,,,,> 10000,18,10
"Cc1cc(Nc2nc(-c3nn(Cc4c(F)cc(OCCO)cc4F)c4ccccc34)nc3c2CCC3)ncn1 [Example 2-4-11, 2-{3,5-difluoro-4-[(3-{4-[(6-methylpyrimidin-4-yl)amino]-6,7-dihydro-5H-cyclopenta[d]pyrimidin-2-yl}-1H-indazol-1-yl)methyl]phenoxy}ethanol]",120,,,,> 10000,88,1900
"Cc1cc(Nc2nc(-c3nn(Cc4c(F)cc(OCCO)cc4F)c4ccccc34)nc3c2CCC3)ccn1 [Example 2-4-12, 2-{3,5-difluoro-4-[(3-{4-[(2-methylpyridin-4-yl)amino]-6,7-dihydro-5H-cyclopenta[d]pyrimidin-2-yl}-1H-indazol-1-yl)methyl]phenoxy}ethanol]",3300,,48,,1100,,2300
"CCOc1cc(F)c(Cn2nc(-c3nc(CO)cc(Nc4ccncc4C)n3)c3ccccc32)c(F)c1 [Example 2-6-4, {2-[1-(4-ethoxy-2,6-difluorobenzyl)-1H-indazol-3-yl]-6-[(3-methylpyridin-4-yl)amino]pyrimidin-4-yl}methanol]",170,,9.1,,1400,,52
"Cc1nccc(Nc2nc(-c3nn(Cc4c(F)cc(O)cc4F)c4ccccc34)nc3c2CCC3)n1 [Example 2-6-12, 3,5-difluoro-4-[(3-{4-[(2-methylpyrimidin-4-yl)amino]-6,7-dihydro-5H-cyclopenta[d]pyrimidin-2-yl}-1H-indazol-1-yl)methyl]phenol]",2100,,,,> 10000,44,2300
"CC(=O)Nc1cc(Nc2nc(-c3nn(Cc4c(F)cc(OCCO)cc4F)c4ccccc34)ncc2C2CCN(CC(F)(F)F)CC2)ccn1 [Example 2-6-13, N-{4-[(2-{1-[2,6-difluoro-4-(2-hydroxyethoxy)benzyl]-1H-indazol-3-yl}-5-[1-(2,2,2-trifluoroethyl)piperidin-4-yl]pyrimidin-4-yl)amino]pyridin-2-yl}acetamide]",390,,,,9700,53,8.4
"CCOc1cc(F)c(Cn2nc(-c3nc4c(c(Nc5ccnc(C(F)(F)F)c5)n3)CNCC4)c3ccccc32)c(F)c1 [Example 2-9-17, 2-[1-(4-ethoxy-2,6-difluorobenzyl)-1H-indazol-3-yl]-N-[2-(trifluorometh-yl)pyridin-4-yl]-5,6,7,8-tetrahydro-pyrido[4,3-d]pyr-imidin-4-amine]",130,,,,2100,,2
"CCOc1cc(F)c(Cn2nc(-c3nc(C)c(F)c(Nc4ccnc(C(F)(F)F)c4)n3)c3ccccc32)c(F)c1 [Example 2-12-21, 2-[1-(4-ethoxy-2,6-difluorobenzyl)-1H-indazol-3-yl]-5-fluoro-6-methyl-N-[2-(trifluoromethyl)pyridin-4-yl]pyrimidin-4-amine]",670,,,,> 10000,,38
